From PubChem BioAssay (NCI) come the findings set out here.

Each structure is given as a SMILES string.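 Interpolation was linear, between the two tested concentrations surrounding the appropriate level; five concentrations were tested over 48 hours in 96-well plates. TGI: total growth inhibition.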 Some results are limits rather than exact numbers.

Some test systems named below: 786-0 renal; MCF7 breast; SN12C renal; NCI/ADR-RES ovarian; SK-OV-3 ovarian; SF-268 CNS; DU-145 prostate; SF-295 CNS; COLO 205 colon; UACC-62 melanoma; HCT-15 colon; KM12 colon; IGROV1 ovarian.
Holding throughout (assay): NCI-60 cell line screen, 48 h

With `COc1ccc(OC)c2c(=O)cc(-c3ccccc3)[nH]c12`, the TGI with 786-0 renal, with MCF7 breast, in the experiment with SN12C renal, in the experiment on NCI/ADR-RES ovarian, with SK-OV-3 ovarian and with SF-268 CNS was more than 100 µM in each case. The TGI with DU-145 prostate, in the experiment with SF-295 CNS, in the experiment on COLO 205 colon, in the experiment on UACC-62 melanoma, in the experiment on HCT-15 colon and with KM12 colon was more than 100 µM each time. In the experiment with IGROV1 ovarian, this compound yielded a TGI of more than 100 µM.

In the case of `CC(=O)NNc1nc(C)c(C(/C=C/c2ccccc2O)=N/NC(=O)c2ccncc2)s1`, the TGI in the experiment on 786-0 renal, in the experiment with MCF7 breast, in the experiment on SN12C renal, in the experiment with NCI/ADR-RES ovarian, in the experiment with SK-OV-3 ovarian and in the experiment with SF-268 CNS was more than 100 µM in each case. For the same compound, the TGI in the experiment on DU-145 prostate, with SF-295 CNS, in the experiment with COLO 205 colon, with UACC-62 melanoma, in the experiment on HCT-15 colon and in the experiment on KM12 colon was more than 100 µM in each case. In the experiment with IGROV1 ovarian, this compound gave a TGI of more than 100 µM.

As to `C=C(CO)[C@H]1CC/C(C)=C/CC/C(C)=C/C/C=C(\C)[C@H](O)C1`, the TGI is 57.5 µM in the experiment with 786-0 renal; 60.8 µM in the experiment on MCF7 breast; 81.7 µM in the experiment with SN12C renal; 90.3 µM in the experiment with NCI/ADR-RES ovarian; more than 100 µM in the experiment on SK-OV-3 ovarian; 51.4 µM in the experiment with SF-268 CNS. In addition, the TGI was more than 100 µM in the experiment on DU-145 prostate; more than 100 µM in the experiment on SF-295 CNS; 59.9 µM in the experiment on COLO 205 colon; 58.4 µM in the experiment with UACC-62 melanoma; more than 100 µM in the experiment on HCT-15 colon; 29.5 µM with KM12 colon. The compound further registered a TGI in the experiment with IGROV1 ovarian of 36.1 µM.

For `CC1=CC[C@@]2(C)[C@@H]([C@@H]1C)[C@H]1CC[C@@H]3[C@@]4(C)CC[C@H](O)C(C)(C)[C@@H]4CC[C@@]3(C)[C@]1(C)C[C@@H]2O`, the TGI was 42.2 µM in the experiment with 786-0 renal; more than 100 µM in the experiment with MCF7 breast; more than 100 µM in the experiment on SN12C renal; 61.7 µM in the experiment with NCI/ADR-RES ovarian; more than 64.7 µM in the experiment on SK-OV-3 ovarian; 25.2 µM in the experiment with SF-268 CNS. Further, the TGI is 25.6 µM in the experiment with DU-145 prostate; 43.4 µM in the experiment with SF-295 CNS; 32.1 µM in the experiment with COLO 205 colon; more than 68.8 µM in the experiment on UACC-62 melanoma; more than 71.6 µM in the experiment with HCT-15 colon; more than 74.8 µM with KM12 colon. The TGI in the experiment on IGROV1 ovarian stood at 42.2 µM.

Turning to `CCCN(CCC)C(=S)N/N=C/c1cccc(C)n1`, the TGI was determined as 1.37 µM in the experiment with 786-0 renal; 0.67 µM in the experiment with MCF7 breast; 3.13 µM in the experiment on SN12C renal; 1.07 µM in the experiment with NCI/ADR-RES ovarian; 15.7 µM with SK-OV-3 ovarian; 15.1 µM with SF-268 CNS. For the same compound, the TGI is more than 100 µM with DU-145 prostate; 7.53 µM with SF-295 CNS; 0.0435 µM in the experiment with COLO 205 colon; 9.45 µM with UACC-62 melanoma; 24.5 µM with HCT-15 colon; 12.4 µM with KM12 colon. Also, in the experiment on IGROV1 ovarian, the TGI was 1.56 µM.

Consider `CC1=C(C#N)C(=O)N(/N=C/c2ccc(Cl)cc2)C(=O)/C1=c1\o/c(=C2/C(=O)N(/N=C/c3ccc(Cl)cc3)C(=O)C(C#N)=C2C)c2nccnc12`, for which the TGI in the experiment on 786-0 renal, with MCF7 breast, with SN12C renal, in the experiment on NCI/ADR-RES ovarian, in the experiment with SK-OV-3 ovarian and in the experiment with SF-268 CNS was more than 100 µM each time. For the same compound, the TGI in the experiment on DU-145 prostate, in the experiment on SF-295 CNS, in the experiment with COLO 205 colon, with UACC-62 melanoma, in the experiment with HCT-15 colon and in the experiment on KM12 colon was more than 100 µM throughout. For the same compound, in the experiment on IGROV1 ovarian, the TGI is more than 100 µM.

Regarding `COc1ccc2c(c1)-c1c(c3ccccc3n1CCN1CCCCC1)CC2`, the TGI in the experiment with 786-0 renal is 41.9 µM; with MCF7 breast, more than 80.8 µM; in the experiment with SN12C renal it was more than 83.9 µM; with NCI/ADR-RES ovarian, 34.4 µM; with SK-OV-3 ovarian, 53 µM; in the experiment with SF-268 CNS it was more than 95.5 µM. Moreover, the TGI with DU-145 prostate is more than 100 µM; with SF-295 CNS, 34.4 µM; in the experiment with COLO 205 colon, 29.9 µM; in the experiment on UACC-62 melanoma it was 36.5 µM; in the experiment with HCT-15 colon, 27.7 µM; in the experiment with KM12 colon it was more than 56.9 µM. Moreover, in the experiment on IGROV1 ovarian, the TGI was found to be 41.9 µM.

As for `O=c1[nH]c2nccn2c(Cl)c1Br`, the TGI in the experiment with 786-0 renal was more than 100 µM; with MCF7 breast it was more than 100 µM; in the experiment with SN12C renal, 67.5 µM; in the experiment on NCI/ADR-RES ovarian, 73.2 µM; in the experiment on SK-OV-3 ovarian, 86.9 µM; with SF-268 CNS, 49.1 µM. Besides, the TGI in the experiment with DU-145 prostate is more than 100 µM; in the experiment with SF-295 CNS it was more than 100 µM; with COLO 205 colon it was 34.4 µM; in the experiment with UACC-62 melanoma, 43.3 µM; in the experiment on HCT-15 colon, 33.2 µM; in the experiment on KM12 colon, more than 100 µM. The same compound registered a TGI in the experiment on IGROV1 ovarian of 45.4 µM.

Turning to `CCOC(=O)Cc1nc2nn(Cc3ccccc3)cc2c(=O)[nH]1`, the TGI in the experiment on 786-0 renal, in the experiment with MCF7 breast, in the experiment with SN12C renal, with NCI/ADR-RES ovarian, in the experiment with SK-OV-3 ovarian and in the experiment with SF-268 CNS was more than 100 µM in each case. For the same compound, the TGI with DU-145 prostate, with SF-295 CNS, in the experiment on COLO 205 colon, in the experiment with UACC-62 melanoma, in the experiment with HCT-15 colon and with KM12 colon was more than 100 µM each time. In the experiment on IGROV1 ovarian, this compound displayed a TGI of more than 100 µM.

Regarding `CSC1=N/C(=C\c2ccc(Cl)cc2)C(=O)N1CN1CCOCC1`, the TGI with 786-0 renal, in the experiment with MCF7 breast, in the experiment on SN12C renal, in the experiment with NCI/ADR-RES ovarian, in the experiment with SK-OV-3 ovarian and in the experiment on SF-268 CNS was more than 100 µM throughout. The TGI in the experiment on DU-145 prostate, in the experiment with SF-295 CNS, in the experiment with COLO 205 colon, with UACC-62 melanoma, with HCT-15 colon and with KM12 colon was more than 100 µM throughout. Besides, in the experiment on IGROV1 ovarian, the TGI is more than 100 µM.
